Experimental data reported in patent US20250163057A1, “DCN-1 MODULATING COMPOUNDS AND METHODS OF USE THEREOF” (Cellarity, Inc., priority 2023, published 2025).
Read-outs that look alike come from different tables or passages of the source.

Columns and labels:
[1] = system: Cullin-3 (CUL3) neddylation; assay: AlphaLISA assay for Cullin-3 (CUL3) neddylation in TF 1 cells; assay type: cell-based; details: Homo sapiens, TF-1, 3 h, 3 hours treatment
Summary of the method: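 Neddylated CUL3 was quantified by AlphaLISA in lysates of TF 1 cells exposed for 3 h to test compound in IMDM without supplements. Percent inhibition set between vehicle and 1 μM DI-1548 positive control; IC50 derived by Hill-equation fitting of dose-response curves.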

[2] = molecular target: DCN1 (DCUND1) protein PONY domain (Homo sapiens (Human), UniProt Q96GG9); assay: TR-FRET assay, DCN1 binding with FAM-labeled probe
Chain of DCN1 (DCUND1) protein PONY domain (Q96GG9 60-248): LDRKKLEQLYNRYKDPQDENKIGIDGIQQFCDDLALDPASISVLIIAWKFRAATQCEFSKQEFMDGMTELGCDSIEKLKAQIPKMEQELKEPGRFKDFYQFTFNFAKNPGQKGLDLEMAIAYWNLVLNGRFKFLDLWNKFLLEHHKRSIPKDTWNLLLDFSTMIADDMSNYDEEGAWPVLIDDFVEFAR
Summary of the method: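 TR-FRET ratio (Tb-DCN1 to FAM-probe) read at 1, 5 and 24 hrs after compound addition. Protein: recombinant PONY domain from E. coli, biotinylated and coupled to streptavidin terbium. Either 5 nM DCN1 with 20 nM FAM-probe, or 0.31 nM DCN1 with 100 nM FAM-labelled plus 800 nM unlabelled probe.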

[3] = 24 hr after treatment with compound, read-out: TR FRET IC50 24 hr
[4] = read-out: TR FRET IC50 1 hr, 1 hr after treatment with compound
[5] = TR FRET IC50 1 hr (nM), 1 hr after treatment with compound

Compound | IC50 [1] | IC50 [2, 3] | IC50 [2, 4] | IC50 [2, 5]
CCN1C(=O)[C@@H](NC(=O)c2cccc(C(F)(F)F)c2)[C@@H](c2ccc(F)cc2)c2c(C(=O)N3C[C@H](NC)C[C@H]3C#N)nn(C3CCOCC3)c21 (mixture of isomers) [Compound I-509, N-((4S,5S)-3-((2S,4R)-2-cyano-4-(methylamino)pyrrolidine-1-carbonyl)-7-ethyl-4-(4-fluorophenyl)-6-oxo-1-(tetrahydro-2H-pyran-4-yl)-4,5,6,7-tetrahydro-1H-pyrazolo[3,4-b]pyridin-5-yl)-3-(trifluoromethyl)benzamide] | ≤ 0.1 µM | ≤ 200 nM | ≤ 200 nM | 
CCN1C(=O)[C@H](NC(=O)c2cccc(C(F)(F)F)c2)[C@@H](c2ccc(F)cc2)c2c(C3(NC#N)CC3)nn(-c3ccccc3)c21 (racemic) [Compound I-84] | > 1 µM | 1000 to 3000 nM |  | 1000 to 3000 nM
C=CC(=O)N[C@H](C)c1nn(-c2ccccc2)c2c1[C@@H](c1ccc(F)cc1)[C@H](NC(=O)c1nccc(C(F)(F)F)n1)C(=O)N2CC [Compound I-533] | 0.1 to 1 µM | 200 to 1000 nM |  | 200 to 1000 nM
CCN1C(=O)[C@H](NC(=O)c2cccc(C(F)(F)F)c2)[C@H](c2ccc(F)cc2)c2c(C(=O)N3CCC[C@H]3C#N)nn(-c3cccc(OCCCN4CCC5(CC4)COC5)c3)c21 [Compound I-581] | > 1 µM | 200 to 1000 nM |  | 1000 to 3000 nM
CCN1C(=O)[C@H](NC(=O)c2cccc(C(F)(F)F)c2)[C@H](c2ccc(F)cc2)c2c(C(=O)N3CCC[C@H]3C#N)nn(-c3cccc(OCCN4CCN(C5COC5)CC4)c3)c21 [Compound I-648] | > 1 µM | 1000 to 3000 nM |  | 1000 to 3000 nM
CCN1C(=O)[C@@H](NC(=O)c2ccc3scnc3c2)[C@@H](C2CC2)c2c(C(=O)N3[C@H](C#N)C[C@H]4C[C@H]43)nn(C3CCOCC3)c21 [Compound I-483] | > 1 µM | 200 to 1000 nM |  | 1000 to 3000 nM
CCN1C(=O)[C@@H](NC(=O)c2ccc3snnc3c2)[C@@H](C2CC2)c2c(C(=O)N3[C@H](C#N)C[C@H]4C[C@H]43)nn(C3CCOCC3)c21 [Compound I-706] | ≤ 0.1 µM | 200 to 1000 nM |  | 1000 to 3000 nM
CCN1C(=O)[C@@H](NC(=O)c2cccc(C(F)(F)F)c2)[C@@H](c2ccc(F)cc2)c2c(C(=O)N(C)[C@@H](C#N)CCN(C)C3COC3)nn(C3CCOCC3)c21 [Compound I-654] | ≤ 0.1 µM | ≤ 200 nM | ≤ 200 nM | 
CCN1C(=O)[C@@H](NC(=O)c2cccc(C(F)(F)F)c2)[C@@H](c2ccc(F)cc2)c2c([C@@H](C)N(C#N)CCCN(C)C)nn(-c3ccccc3)c21 [Compound I-578, N-((4S,5S)-3-((R)-1-(N-(3-(dimethylamino)propyl)cyanamido)ethyl)-7-ethyl-4-(4-fluorophenyl)-6-oxo-1-phenyl-4,5,6,7-tetrahydro-1H-pyrazolo[3,4-b]pyridin-5-yl)-3-(trifluoromethyl)benzamide] | 0.1 to 1 µM | 1000 to 3000 nM |  | 1000 to 3000 nM
CCN1C(=O)[C@@H](NC(=O)c2ccc3cn[nH]c3c2)[C@@H](C2CC2)c2c(C(=O)N3[C@H](C#N)C[C@H]4C[C@H]43)nn(C3CCOCC3)c21 [Compound I-563] | > 1 µM | 1000 to 3000 nM |  | 1000 to 3000 nM
CCN1C(=O)[C@@H](NC(=O)c2nccc(C(F)(F)F)n2)[C@H](c2ccc(F)cc2)c2c(CC(=O)N[C@H](C)C#N)nn(-c3ccccc3)c21 (single isomer, unassigned) [Compound I-607] | > 1 µM | 1000 to 3000 nM |  | 200 to 1000 nM
CCCn1nc(C(=O)N(CC#N)C2CC2)c2c1N(CC)C(=O)[C@H](NC(=O)c1cccc(C(F)(F)F)c1)[C@@H]2C1CC1 [Compound I-455] | > 1 µM | 1000 to 3000 nM |  | 1000 to 3000 nM
CCN1C(=O)[C@@H](NC(=O)c2cccc(C(F)(F)F)c2)[C@@H](C2CC2)c2c(C(=O)N(C)[C@@H](C#N)CCN(C)C3COC3)nn(C3CCOCC3)c21 [Compound I-664] | 0.1 to 1 µM | 200 to 1000 nM |  | 200 to 1000 nM
